Reference: patent US20230295234A1, “ANTIMICROBIAL PEPTIDOMIMETICS” (SPEXIS AG, priority 2020, published 2023)
Read-outs that look alike come from different tables or passages of the source. Peptide text beside a SMILES is read from it.

Tests used:
[1] = tested on: human red blood cells (hRBC); experiment: Hemolysis of human red blood cells; format: cell-based; conditions: red cells of human, 1 h
Procedure, shortened: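 PBS-washed human red blood cells (20% v/v) were incubated with peptide at 200 μg/mL for 1 h at 37 °C with shaking. Supernatant OD was read at 540 nm after 8-fold dilution. Hemolysis is expressed as percent of the water control.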

[2] = tested on: Escherichia coli ATCC 25922; conditions: ATCC 25922
Procedure, shortened: (§1)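 Broth microdilution; cation-adjusted MHII; inoculum ~5×10^5 CFU/mL from 0.5 McFarland saline suspension; peptide two-fold serial dilutions; polysorbate 80 0.002% final; peptide stock 1 mg/mL in water.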

[3] = tested on: Escherichia coli MCR-1 Af 45
Procedure, shortened: as §1

[4] = tested on: Klebsiella pneumoniae SSI3010; conditions: SSI3010
Procedure, shortened: as §1

[5] = Mueller-Hinton broth II, 18-20 hours at 35° C.

Escherichia coli MCR-1 Af 45 MIC ([3]; MCR-1 Af 45)	SMILES	Hemolysis at 0.2 g/L [1]	Escherichia coli ATCC 25922 MIC [2]	Escherichia coli MCR-1 Af 45 MIC [3, 5]	Klebsiella pneumoniae SSI3010 MIC [4]
–	CC[C@H](C)[C@H](NC(=O)[C@@H]1C[C@@H](O)CN1C(=O)[C@@H](N)C(C)C)C(=O)N[C@H](C(=O)N[C@@H](Cc1ccc(O)cc1)C(=O)N[C@@H]1C(=O)N[C@@H](CCCCN)C(=O)N[C@@H](CCCNC(=N)N)C(=O)N[C@@H](CCN)C(=O)N[C@@H]([C@@H](C)O)C(=O)N[C@H](CCN)C(=O)N[C@@H](CCCCN)C(=O)N[C@H](C(=O)N[C@@H](CCN)C(=O)N[C@@H](CCCNC(=N)N)C(=O)N[C@@H](Cc2ccc(O)cc2)C(=O)O)CSSC1(C)C)[C@@H](C)O [Example 166] (HELM PEPTIDE1{V.[Hyp].I.T.Y.[Pen].K.R.[Dab].T.[NCC[C@@H](N[*:1])C(=O)[*:2]].K.C.[Dab].R.Y}$PEPTIDE1,PEPTIDE1,6:R3-13:R3$$$V2.0)	0%	0.25 mg/L	0.125 mg/L	0.5 mg/L
–	CC[C@H](C)[C@H](NC(=O)[C@@H]1C[C@@H](O)CN1C(=O)[C@@H](N)C(C)C)C(=O)N[C@H](C(=O)N[C@@H](Cc1ccc(O)cc1)C(=O)N[C@@H]1C(=O)N[C@@H](CC(N)=O)C(=O)N[C@@H](CCCNC(=N)N)C(=O)N[C@@H](CCCCN)C(=O)N[C@@H]([C@@H](C)O)C(=O)N[C@H](CCN)C(=O)N[C@@H](CCCCN)C(=O)N[C@H](C(=O)N[C@@H](CCN)C(=O)N[C@@H](CCCNC(=N)N)C(=O)N[C@@H](Cc2ccc(O)cc2)C(=O)O)CSSC1(C)C)[C@@H](C)O [Example 167] (HELM PEPTIDE1{V.[Hyp].I.T.Y.[Pen].N.R.K.T.[NCC[C@@H](N[*:1])C(=O)[*:2]].K.C.[Dab].R.Y}$PEPTIDE1,PEPTIDE1,6:R3-13:R3$$$V2.0)	0%	0.25 mg/L	0.125 mg/L	0.5 mg/L
–	CC[C@H](C)[C@H](NC(=O)[C@@H]1C[C@@H](O)CN1C(=O)[C@@H](N)C(C)C)C(=O)N[C@H](C(=O)N[C@@H](Cc1ccc(O)cc1)C(=O)N[C@@H]1C(=O)N[C@@H](CC(N)=O)C(=O)N[C@@H](CCCNC(=N)N)C(=O)N[C@@H](CCCNC(=N)N)C(=O)N[C@@H]([C@@H](C)O)C(=O)N[C@H](CCN)C(=O)N[C@@H](CCCCN)C(=O)N[C@H](C(=O)N[C@@H](CCN)C(=O)N[C@@H](CCCNC(=N)N)C(=O)N[C@@H](Cc2ccc(O)cc2)C(=O)O)CSSC1(C)C)[C@@H](C)O [Example 168] (HELM PEPTIDE1{V.[Hyp].I.T.Y.[Pen].N.R.R.T.[NCC[C@@H](N[*:1])C(=O)[*:2]].K.C.[Dab].R.Y}$PEPTIDE1,PEPTIDE1,6:R3-13:R3$$$V2.0)	0%	0.125 mg/L	0.5 mg/L	0.25 mg/L
–	CC[C@H](C)[C@@H]1NC(=O)[C@@H](CCN)NC(=O)[C@H]([C@@H](C)O)NC(=O)[C@H](CCN)NC(=O)[C@H](CCCNC(=N)N)NC(=O)[C@H](CC(N)=O)NC(=O)[C@@H](NC(=O)[C@H](Cc2ccc(O)cc2)NC(=O)[C@@H](NC(=O)[C@@H](NC(=O)[C@@H]2C[C@@H](O)CN2C(=O)[C@@H](N)C(C)C)[C@@H](C)CC)[C@@H](C)O)C(C)(C)SSC[C@@H](C(=O)N[C@@H](CCN)C(=O)N[C@@H](CCCNC(=N)N)C(=O)N[C@@H](Cc2ccc(O)cc2)C(=O)O)NC1=O [Example 169] (HELM PEPTIDE1{V.[Hyp].I.T.Y.[Pen].N.R.[Dab].T.[NCC[C@@H](N[*:1])C(=O)[*:2]].I.C.[Dab].R.Y}$PEPTIDE1,PEPTIDE1,6:R3-13:R3$$$V2.0)	0%	0.5 mg/L	0.25 mg/L	0.5 mg/L
–	CC[C@H](C)[C@H](NC(=O)[C@@H]1C[C@@H](O)CN1C(=O)[C@@H](N)C(C)C)C(=O)N[C@H](C(=O)N[C@@H](Cc1ccc(O)cc1)C(=O)N[C@@H]1C(=O)N[C@@H](CC(N)=O)C(=O)N[C@@H](CCCNC(=N)N)C(=O)N[C@@H](CCN)C(=O)N[C@@H]([C@@H](C)O)C(=O)N[C@H](CCN)C(=O)N[C@@H](CO)C(=O)N[C@H](C(=O)N[C@@H](CCN)C(=O)N[C@@H](CCCNC(=N)N)C(=O)N[C@@H](Cc2ccc(O)cc2)C(=O)O)CSSC1(C)C)[C@@H](C)O [Example 170] (HELM PEPTIDE1{V.[Hyp].I.T.Y.[Pen].N.R.[Dab].T.[NCC[C@@H](N[*:1])C(=O)[*:2]].S.C.[Dab].R.Y}$PEPTIDE1,PEPTIDE1,6:R3-13:R3$$$V2.0)	0%	0.25 mg/L	0.5 mg/L	0.5 mg/L
–	CC[C@H](C)[C@H](NC(=O)[C@@H]1C[C@@H](O)CN1C(=O)[C@@H](N)C(C)C)C(=O)N[C@H](C(=O)N[C@@H](Cc1ccc(O)cc1)C(=O)N[C@@H]1C(=O)N[C@@H](CC(N)=O)C(=O)N[C@@H](CCCNC(=N)N)C(=O)N[C@@H](CCN)C(=O)N[C@@H]([C@@H](C)O)C(=O)N[C@H](CCN)C(=O)N[C@@H](Cc2ccc(O)cc2)C(=O)N[C@H](C(=O)N[C@@H](CCN)C(=O)N[C@@H](CCCNC(=N)N)C(=O)N[C@@H](Cc2ccc(O)cc2)C(=O)O)CSSC1(C)C)[C@@H](C)O [Example 171] (HELM PEPTIDE1{V.[Hyp].I.T.Y.[Pen].N.R.[Dab].T.[NCC[C@@H](N[*:1])C(=O)[*:2]].Y.C.[Dab].R.Y}$PEPTIDE1,PEPTIDE1,6:R3-13:R3$$$V2.0)	0%	0.5 mg/L	0.5 mg/L	0.25 mg/L
–	CC[C@H](C)[C@H](NC(=O)[C@@H]1C[C@@H](O)CN1C(=O)[C@@H](N)C(C)C)C(=O)N[C@H](C(=O)N[C@@H](Cc1ccc(O)cc1)C(=O)N[C@@H]1C(=O)N[C@@H](CC(N)=O)C(=O)N[C@@H](CCCNC(=N)N)C(=O)N[C@@H](CCN)C(=O)N[C@@H]([C@@H](C)O)C(=O)N[C@H](CCN)C(=O)N[C@@H](Cc2c[nH]c3ccccc23)C(=O)N[C@H](C(=O)N[C@@H](CCN)C(=O)N[C@@H](CCCNC(=N)N)C(=O)N[C@@H](Cc2ccc(O)cc2)C(=O)O)CSSC1(C)C)[C@@H](C)O [Example 172] (HELM PEPTIDE1{V.[Hyp].I.T.Y.[Pen].N.R.[Dab].T.[NCC[C@@H](N[*:1])C(=O)[*:2]].W.C.[Dab].R.Y}$PEPTIDE1,PEPTIDE1,6:R3-13:R3$$$V2.0)	0%	0.5 mg/L	0.5 mg/L	0.5 mg/L
0.25 mg/L	CC[C@H](C)[C@H](NC(=O)[C@@H]1C[C@@H](O)CN1C(=O)[C@@H](N)C(C)C)C(=O)N[C@H](C(=O)N[C@@H](Cc1ccc(O)cc1)C(=O)N[C@@H]1C(=O)N[C@@H](CC(N)=O)C(=O)N[C@@H](CCCNC(=N)N)C(=O)N[C@@H](CCN)C(=O)N[C@@H]([C@@H](C)O)C(=O)N[C@H](CCN)C(=O)N[C@@H](CC(N)=O)C(=O)N[C@H](C(=O)N[C@@H](CCN)C(=O)N[C@@H](CCCNC(=N)N)C(=O)N[C@@H](Cc2ccc(O)cc2)C(=O)O)CSSC1(C)C)[C@@H](C)O [Example 173] (HELM PEPTIDE1{V.[Hyp].I.T.Y.[Pen].N.R.[Dab].T.[NCC[C@@H](N[*:1])C(=O)[*:2]].N.C.[Dab].R.Y}$PEPTIDE1,PEPTIDE1,6:R3-13:R3$$$V2.0; N-terminus and C-terminus assumed)	0%	0.25 mg/L	–	0.5 mg/L
–	CC[C@H](C)[C@H](NC(=O)[C@@H]1C[C@@H](O)CN1C(=O)[C@@H](N)C(C)C)C(=O)N[C@H](C(=O)N[C@@H](Cc1ccc(O)cc1)C(=O)N[C@@H]1C(=O)N[C@@H](CC(N)=O)C(=O)N[C@@H](CCCNC(=N)N)C(=O)N[C@@H](CCN)C(=O)N[C@@H]([C@@H](C)O)C(=O)N[C@H](CCN)C(=O)N[C@@H](CCN)C(=O)N[C@H](C(=O)N[C@@H](CCN)C(=O)N[C@@H](CCCNC(=N)N)C(=O)N[C@@H](Cc2ccc(O)cc2)C(=O)O)CSSC1(C)C)[C@@H](C)O [Example 174] (HELM PEPTIDE1{V.[Hyp].I.T.Y.[Pen].N.R.[Dab].T.[NCC[C@@H](N[*:1])C(=O)[*:2]].[Dab].C.[Dab].R.Y}$PEPTIDE1,PEPTIDE1,6:R3-13:R3$$$V2.0)	0%	0.125 mg/L	0.0625 mg/L	0.25 mg/L
–	CC[C@H](C)[C@H](NC(=O)[C@@H]1C[C@@H](O)CN1C(=O)[C@@H](N)C(C)C)C(=O)N[C@H](C(=O)N[C@@H](Cc1ccc(O)cc1)C(=O)N[C@@H]1C(=O)N[C@@H](CC(N)=O)C(=O)N[C@@H](CCCNC(=N)N)C(=O)N[C@@H](CCN)C(=O)N[C@@H]([C@@H](C)O)C(=O)N[C@H](CCN)C(=O)N[C@@H](CCCCN)C(=O)N[C@H](C(=O)N[C@@H](CCN)C(=O)N[C@@H](CC(C)C)C(=O)N[C@@H](Cc2ccc(O)cc2)C(=O)O)CSSC1(C)C)[C@@H](C)O [Example 175] (HELM PEPTIDE1{V.[Hyp].I.T.Y.[Pen].N.R.[Dab].T.[NCC[C@@H](N[*:1])C(=O)[*:2]].K.C.[Dab].L.Y}$PEPTIDE1,PEPTIDE1,6:R3-13:R3$$$V2.0)	0%	0.25 mg/L	0.25 mg/L	0.5 mg/L
